Measurements taken from ChEMBL document CHEMBL1137065, “Identification of peptidomimetic HTLV-I protease inhibitors containing hydroxymethylcarbonyl (HMC) isostere as the transition-state mimic” (Bioorg Med Chem Lett, 2004).
Starred links: 1 amine or outer side, 2 acyl side, 3 side chain; linkers in the order of their positions; H or OH if unused. Non-standard residues stand in square brackets, D forms with d. Residues, ends and D or L forms follow the SMILES beside them. X1 = O=C(C(O)[C@H](Cc1ccccc1)N[*:1])[*:2]; X2 = CC(C)C[C@H](N[*:1])C(O)C(=O)[*:2]; Thz(5,5-Me2) = CC1(C)SCN[C@@H]1C(=O)O

How the values were obtained:
[1] = target: T1, Gag-Pro polyprotein (Human T-cell leukemia virus 1 (strain Japan ATK-1 subtype A) (HTLV-1)) (UniProt P10274); assay: Percent inhibition of synthesized human T-cell leukemia virus type I (HTLV-1) protease was determined at 50 uM concentration; settings: Human T-cell lymphotrophic virus type 1 (strain ATK)
T1 sequence (whole entry): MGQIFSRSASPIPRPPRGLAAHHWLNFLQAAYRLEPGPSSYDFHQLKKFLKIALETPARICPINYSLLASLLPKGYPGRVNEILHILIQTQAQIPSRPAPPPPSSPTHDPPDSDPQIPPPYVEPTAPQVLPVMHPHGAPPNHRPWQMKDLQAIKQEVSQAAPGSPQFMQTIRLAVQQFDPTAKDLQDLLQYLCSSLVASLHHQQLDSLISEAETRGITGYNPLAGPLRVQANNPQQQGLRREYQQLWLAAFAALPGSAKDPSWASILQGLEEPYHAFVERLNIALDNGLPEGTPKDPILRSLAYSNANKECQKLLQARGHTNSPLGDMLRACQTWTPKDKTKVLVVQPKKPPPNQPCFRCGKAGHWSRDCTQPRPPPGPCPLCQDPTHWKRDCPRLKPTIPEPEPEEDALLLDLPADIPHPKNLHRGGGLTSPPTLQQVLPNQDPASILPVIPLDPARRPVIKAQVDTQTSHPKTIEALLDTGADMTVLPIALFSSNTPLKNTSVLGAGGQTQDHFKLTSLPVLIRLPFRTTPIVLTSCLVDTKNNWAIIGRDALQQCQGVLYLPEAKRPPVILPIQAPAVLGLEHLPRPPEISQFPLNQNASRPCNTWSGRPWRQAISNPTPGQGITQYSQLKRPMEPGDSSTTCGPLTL

[2] = target: T1, Gag-Pro polyprotein (Human T-cell leukemia virus 1 (strain Japan ATK-1 subtype A) (HTLV-1)); assay: Percent inhibition of recombinant human T-cell leukemia virus type I (HTLV-1) protease was determined at 50 uM concentration; settings: Human T-cell lymphotrophic virus type 1 (strain ATK)
[3] = target: Human immunodeficiency virus type 1 protease (Human immunodeficiency virus 1) (UniProt Q72874); assay: Percent inhibition of human immunodeficiency virus type I (HIV-1) protease was determined at 50 uM concentration
[4] = target: T1, Gag-Pro polyprotein (Human T-cell leukemia virus 1 (strain Japan ATK-1 subtype A) (HTLV-1)); assay: Percent inhibition of recombinant human T-cell leukemia virus type I (HTLV-1) protease was determined at 100 uM concentration; settings: human T-cell leukemia virus type 1
Gag-Pro polyprotein [5] = target: T2, Gag-Pro polyprotein (Human T-cell leukemia virus 1 (strain Japan ATK-1 subtype A) (HTLV-1), UniProt P10274); assay: Inhibitory binding affinity towards recombinant human T-cell leukemia virus type I (HTLV-1) protease; set-up: species or system human T-cell leukemia virus type 1
T2 sequence (P10274 whole entry): T1 sequence (whole entry)

Gag-Pro polyprotein [6] = target: T2, Gag-Pro polyprotein; assay: Inhibitory binding affinity towards synthesized human T-cell leukemia virus type I (HTLV-1) protease; set-up: species or system human T-cell leukemia virus type 1
[7] = target: T1, Gag-Pro polyprotein (Human T-cell leukemia virus 1 (strain Japan ATK-1 subtype A) (HTLV-1)); assay: Percent inhibition of synthesized human T-cell leukemia virus type I (HTLV-1) protease was determined at 100 uM concentration; settings: human T-cell leukemia virus type 1

inhibition [4] [%] | inhibition [7] [%] | SMILES | inhibition [1] [%] | inhibition [2] [%] | inhibition [3] [%] | Ki (Gag-Pro polyprotein [5]) [µM] | Ki (Gag-Pro polyprotein [6]) [µM]
 |  | CC(C)CC(=O)N[C@H](C(=O)N[C@H](C(=O)N[C@@H](CC(C)C)[C@@H](O)CC(=O)N[C@@H](C)C(=O)N[C@@H](CC(C)C)[C@@H](O)CC(=O)O)C(C)C)C(C)C [PEPSTATIN] | 15 | 17 | 23 | 14.6 | 36.5
31 | 79 | Cc1ccccc1CNC(=O)C1N(C(=O)C(O)C(Cc2ccccc2)NC(=O)c2cccc(O)c2C)CSC1(C)C (stereo not drawn) |  |  | 96 |  | 
38 | 57 | Cc1c(O)cccc1C(=O)NC(Cc1ccccc1)C(O)C(=O)N1CSC(C)(C)C1C(=O)NC(C)(C)C (stereo not drawn) |  |  | 88 |  | 
 |  | CSCC[C@H](NC(=O)[C@@H](NC(=O)[C@H]1N(C(=O)C(O)[C@H](Cc2ccccc2)NC(=O)[C@@H](NC(=O)[C@H](CCC(N)=O)NC(=O)[C@@H]2CCCN2)C(C)C)CSC1(C)C)C(C)C)C(=O)N[C@@H](Cc1cnc[nH]1)C(=O)O (stereo partly drawn) (H-PQV[X1][Thz(5,5-Me2)]VMH-OH) |  |  |  | 3.9 | 2
20 | 20 | CC(C)c1nc(CN(C)C(=O)N[C@H](C(=O)N[C@@H](Cc2ccccc2)C[C@H](O)[C@H](Cc2ccccc2)NC(=O)OCc2cncs2)C(C)C)cs1 |  |  | 100 |  | 
19 | 11 | Cc1ccccc1CNC(=O)C1N(C(=O)C(O)C(Cc2ccccc2)NC(=O)COc2c(C)cccc2C)CSC1(C)C (stereo not drawn) |  |  | 98 |  | 
43 | 32 | Cc1cccc(C)c1OCC(=O)NC(Cc1ccccc1)C(O)C(=O)N1CSC(C)(C)C1C(=O)NC(C)(C)C (stereo not drawn) |  |  | 96 |  | 

SMILES | inhibition [4] [%] | inhibition [7] [%] | inhibition [1] [%] | inhibition [2] [%] | inhibition [3] [%] | Ki (Gag-Pro polyprotein [5]) [µM] | Ki (Gag-Pro polyprotein [6]) [µM]
CSCC[C@H](NC(=O)[C@@H](NC(=O)[C@@H]1CCCN1C(=O)C(O)[C@H](CC(C)C)NC(=O)[C@@H](NC(=O)[C@H](CCC(N)=O)NC(=O)[C@@H]1CCCN1)C(C)C)C(C)C)C(=O)N[C@@H](Cc1c[nH]cn1)C(=O)O (stereo partly drawn) (H-PQV[X2]PVMH-OH) | 93 |  | 58 | 43 | 3 |  | 
CSCC[C@H](NC(=O)[C@@H](NC(=O)[C@H]1N(C(=O)C(O)[C@H](CC(C)C)NC(=O)[C@@H](NC(=O)[C@H](CCC(N)=O)NC(=O)[C@@H]2CCCN2)C(C)C)CSC1(C)C)C(C)C)C(=O)N[C@@H](Cc1c[nH]cn1)C(=O)O (stereo partly drawn) (H-PQV[X2][Thz(5,5-Me2)]VMH-OH) | 100 |  | 76 | 63 | 37 |  | 
CSCC[C@H](NC(=O)[C@@H](NC(=O)[C@@H]1CCCN1C(=O)C(O)[C@H](Cc1ccccc1)NC(=O)[C@@H](NC(=O)[C@H](CCC(N)=O)NC(=O)[C@@H]1CCCN1)C(C)C)C(C)C)C(=O)N[C@@H](Cc1c[nH]cn1)C(=O)O (stereo partly drawn) (H-PQV[X1]PVMH-OH) | 94 |  | 59 | 54 | 6 |  | 
CSCC[C@H](NC(=O)[C@@H](NC(=O)[C@H]1N(C(=O)C(O)[C@H](Cc2ccccc2)NC(=O)[C@@H](NC(=O)[C@H](CCC(N)=O)NC(=O)[C@@H]2CCCN2)C(C)C)CSC1(C)C)C(C)C)C(=O)N[C@@H](Cc1c[nH]cn1)C(=O)O (stereo partly drawn) (H-PQV[X1][Thz(5,5-Me2)]VMH-OH) | 100 |  | 80 | 66 | 58 |  | 
